According to patent publication US9399647B2, “Proteasome activity modulating compounds” (Proteostasis Therapeutics, Inc., priority 2012, dated 2016):

Molecular target: USP14 (Homo sapiens, UniProt P54578)
Assay: USP14 inhibition assay
Assay type: biochemical
Conditions: average value from three experimental determinations; reported as potency bands; read-out: IC50 (USP14 inhibition)
Source text: The IC50 values in the Table below represent the average value from three experimental determinations.
These IC50 values represent the average value from three experimental determinations.

Chain of USP14 (P54578 whole entry): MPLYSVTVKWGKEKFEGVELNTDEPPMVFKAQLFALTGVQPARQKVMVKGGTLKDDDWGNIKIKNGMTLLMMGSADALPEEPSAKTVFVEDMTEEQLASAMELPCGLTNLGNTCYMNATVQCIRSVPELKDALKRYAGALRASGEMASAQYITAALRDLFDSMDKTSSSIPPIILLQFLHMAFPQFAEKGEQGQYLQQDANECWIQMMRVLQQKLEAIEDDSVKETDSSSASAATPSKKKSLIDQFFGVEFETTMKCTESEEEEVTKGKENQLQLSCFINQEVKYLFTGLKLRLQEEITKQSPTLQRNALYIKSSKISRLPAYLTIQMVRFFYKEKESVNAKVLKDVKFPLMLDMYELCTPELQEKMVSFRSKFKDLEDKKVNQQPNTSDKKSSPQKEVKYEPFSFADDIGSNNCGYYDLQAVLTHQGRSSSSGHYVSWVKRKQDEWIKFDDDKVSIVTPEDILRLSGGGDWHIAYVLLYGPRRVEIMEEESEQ
Chain of USP14 (Q13200 whole entry partner): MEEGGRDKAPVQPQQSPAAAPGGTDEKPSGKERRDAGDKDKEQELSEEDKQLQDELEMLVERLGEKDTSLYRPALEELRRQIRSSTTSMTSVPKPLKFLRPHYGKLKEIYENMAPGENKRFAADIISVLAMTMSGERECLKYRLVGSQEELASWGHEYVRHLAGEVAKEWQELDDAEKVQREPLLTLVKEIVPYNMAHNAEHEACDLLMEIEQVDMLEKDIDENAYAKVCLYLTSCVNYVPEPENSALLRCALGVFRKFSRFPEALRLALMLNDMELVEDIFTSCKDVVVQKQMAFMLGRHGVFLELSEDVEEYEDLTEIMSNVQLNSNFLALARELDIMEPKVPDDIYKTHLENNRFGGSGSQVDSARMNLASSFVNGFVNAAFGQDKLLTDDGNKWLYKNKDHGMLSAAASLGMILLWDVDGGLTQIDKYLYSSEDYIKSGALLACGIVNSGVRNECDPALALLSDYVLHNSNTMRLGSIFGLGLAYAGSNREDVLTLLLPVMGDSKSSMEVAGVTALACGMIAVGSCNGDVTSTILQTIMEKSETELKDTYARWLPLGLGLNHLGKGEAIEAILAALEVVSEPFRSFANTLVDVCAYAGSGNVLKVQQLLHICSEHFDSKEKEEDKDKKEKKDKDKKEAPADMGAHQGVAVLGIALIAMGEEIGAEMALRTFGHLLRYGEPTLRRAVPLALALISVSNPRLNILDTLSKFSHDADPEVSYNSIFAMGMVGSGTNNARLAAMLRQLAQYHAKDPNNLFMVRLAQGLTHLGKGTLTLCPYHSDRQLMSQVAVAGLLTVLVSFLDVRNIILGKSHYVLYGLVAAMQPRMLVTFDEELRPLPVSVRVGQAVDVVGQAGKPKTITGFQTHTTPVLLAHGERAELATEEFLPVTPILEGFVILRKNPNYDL
Chain of USP14 (P35998 whole entry partner): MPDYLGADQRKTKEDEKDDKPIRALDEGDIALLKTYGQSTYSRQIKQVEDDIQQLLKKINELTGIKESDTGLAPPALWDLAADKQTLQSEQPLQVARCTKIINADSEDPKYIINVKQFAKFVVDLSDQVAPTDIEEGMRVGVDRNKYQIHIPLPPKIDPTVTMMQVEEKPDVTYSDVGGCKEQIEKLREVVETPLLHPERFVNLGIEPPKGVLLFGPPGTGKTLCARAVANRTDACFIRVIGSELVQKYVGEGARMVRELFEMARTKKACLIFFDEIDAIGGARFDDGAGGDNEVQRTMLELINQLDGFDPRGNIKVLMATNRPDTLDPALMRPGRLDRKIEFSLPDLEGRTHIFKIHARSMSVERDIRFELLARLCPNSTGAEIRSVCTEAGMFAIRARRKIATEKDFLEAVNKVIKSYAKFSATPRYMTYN

IC50: 1 to 5 µM
SMILES: CN(C)C(=O)Cc1nc(N(C)C2CC2)c2c3c(sc2n1)CCCCC3 [Compound 53, 2-[4-(Cyclopropyl-methyl-amino)-6,7,8,9-tetrahydro-5H-10-thia-1,3-diaza-benz[a]azulen-2-yl]-N,N-dimethyl-acetamide]
